Patent US20150289512A1, “METHOD FOR PROMOTING PLANT GROWTH” (SUMITOMO CHEMICAL COMPANY, LIMITED, priority 2012, published 2015)

Experiments:
Type in all cases: in vivo
[1] = test system: Nicotiana benthamiana; assay: Test Example 5: growth promotion under low-temperature stress by hydroponics of Nicotiana benthamiana, 1 ppm; conditions: 1 ppm in medium, low-temperature stress 7 days at 1.5±1.0° C., green leaf area 3 days later, equation (1)
Description: (§1) Test for Evaluating Growth Promotion Under Low-Temperature Stress by Hydroponics of Nicotiana benthamiana
A DMSO solution, which contained one of the compounds 2, 4, 5, 6, 11, 12, 17, 20, 21, 28, 30, 34, 36, 37, 51, 52, 53, 55, 56, 58, 59, 60, 64, 65, 66, 68, 69, 70, 74, 77, 82, 83, 84, 86 and 87 of the present invention at a concentration of 1,000 ppm, was prepared. The DMSO solution of the compound of the present invention was added at a volume ratio of 1/1,000 to the Murashige•Scoog medium of a ½-fold concentration (a medium containing 2.3 g of mixed salts for the Murashige•Scoog medium (manufactured by Wako Pure Chemical Industries, Ltd.), 200 mg of Myo-inositol (manufactured by Sigma-Aldrich Co. LLC.), 2 mg of nicotinic acid (manufactured by Wako Pure Chemical Industries, Ltd.), 2 mg of pyridoxine hydrochloride (manufactured by Wako Pure Chemical Industries, Ltd.), 20 mg of thiamine hydrochloride (manufactured by Wako Pure Chemical Industries, Ltd.), 20 g of sucrose (manufactured by Wako Pure Chemical Industries, Ltd.), and 1 g of MES (manufactured by DOJINDO LABORATORIES) per 1 L of water and having pH adjusted to 5.8), thereby preparing a medium containing the compound of the present invention at a concentration of 1 ppm.
(§2) Seeds of Nicotiana benthamiana were seeded in the 5 μL of the medium and cultured overnight at 22° C. Thereafter, 45 μL of the medium containing the compound of the present invention at a concentration of 1 ppm was added thereto, and the seeds are cultured for 7 days at 22° C., an illuminance of 4,000 lux, and a day length of 16 hours, and the nursery plants raised from the Nicotiana benthamiana were treated with the compound. Moreover, instead of the above medium, a test plot, which was obtained by performing the same treatment by using a medium prepared by adding DMSO to the Murashige•Scoog medium of ½-fold concentration at a volume ratio of 1/1,000, was used as a control plot not treated with the compound.
(§3) The nursery plants of the Nicotiana benthamiana treated with the compound were subjected to low-temperature treatment by being cultivated for 7 days at 1.5±1.0° C., an illuminance of 2,000 lux, and a day length of 16 hours.
The nursery plants of the Nicotiana benthamiana having undergone the low-temperature stress treatment were cultured for 3 days at 22° C., an illuminance of 4,000 lux, and a day length of 16 hours. Thereafter, the area of green leaf was quantified by Scanalyzer HTS (manufactured by LemnaTec GmbH). Moreover, the value of the control plot not treated with the compound that had not yet been subjected to the low-temperature stress treatment was measured in the same manner. A value of a relative leaf area was calculated based on the following equation (1), and if the value of a relative leaf area was 5 or greater, the compound was evaluated to have a mitigating effect. As a result of the evaluation, it was confirmed that when the plant was treated with one of the compounds 2, 4, 5, 6, 11, 12, 17, 20, 21, 28, 30, 34, 36, 37, 51, 52, 53, 55, 56, 58, 59, 60, 64, 65, 66, 68, 69, 70, 74, 77, 82, 83, 84, 86 and 87 of the present invention at 1 ppm, the value of a relative leaf area was 5 or greater, compared to the area of green leaf of the control plot not treated with compound. Accordingly, it was confirmed that the treatment using the compound of the present invention brings about a growth promotion effect.
(§4) Relative leaf area=100*(a green area of a plot treated with the compound of the present invention−a green area of a control plot not treated with the compound of the present invention)/(a green area of a control plot not treated with the compound of the present invention that has not yet been subjected to low-temperature stress treatment−a green area of a control plot not treated with the compound of the present invention) Equation (1): […]

[2] = test system: Rice (variety: Nipponbare); assay: Test Example 1: promotion of root growth by hydroponics of rice, 10 ppm; conditions: Oryza sativa, hydroponic solution containing the test compound at 10 ppm, average of 4 or 5 individuals, read-out: Relative value of length of seminal root (%-untreated control plot)
Description: (§5) Test for Evaluating Promotion of Root Growth by Hydroponics of Rice
(§6) Rice (variety: Nipponbare)
(§7) Rice seeds were soaked in a 1% aqueous sodium hypochlorite solution for 10 minutes, then soaked in a 70% ethanol solution for surface sterilization, and then washed with distilled water. The sterilized seeds were soaked in a hydroponic solution containing the test compound described above at 10 ppm and incubated in a dark place for 3 days at 28° C. to perform treatment for hastening germination.
(§8) Thereafter, 30 ml of hydroponic solution containing the test compound at 10 ppm was dispensed in a plastic tube (diameter of 20 mm×height of 113 mm) of which the side was covered with cardboard to block light. A float prepared using a styrene board and vinyl mesh was floated, and the rice seeds that had undergone the treatment for hastening germination were placed on the float on the surface of the hydroponic solution. The seeds were cultivated for 3 days at 26° C., an illuminance of 4,000 lux of the top surface of the tube, a humidity of 50%, and a day length of 16 hours.
(§9) The nursery plants of rice obtained after culturing were measured in terms of the length of seminal root by using WinRHIZO system (manufactured by Regent Instruments Inc). For each test plot, an average of the measured values of the seminal root of 4 or 5 individuals was determined.

[3] = test system: Nicotiana benthamiana; assay: Test Example 6: growth promotion under low-temperature stress by hydroponics of Nicotiana benthamiana, 0.1 ppm; conditions: 0.1 ppm in medium, low-temperature stress 7 days at 1.5±1.0° C., green leaf area 3 days later, equation (1)
Description: as §1
A DMSO solution, which contained one of the compounds 3, 7, 14, 16, 36, 39, 43, 45, 50, 52, 53, 54, 56, 57, 62, 63, 64, 65, 68, 69, 70, 71, 73, 74, 76, 77, 79, 80, 81, 84, 85, 86 and 87 of the present invention at a concentration of 100 ppm, was prepared. The DMSO solution of the compound of the present invention was added at a volume ratio of 1/1,000 to the Murashige•Scoog medium of a ½-fold concentration for the Murashige•Scoog medium (a medium containing 2.3 g of mixed salts (manufactured by Wako Pure Chemical Industries, Ltd.), 200 mg of Myo-inositol (manufactured by Sigma-Aldrich Co. LLC.), 2 mg of nicotinic acid (manufactured by Wako Pure Chemical Industries, Ltd.), 2 mg of pyridoxine hydrochloride (manufactured by Wako Pure Chemical Industries, Ltd.), 20 mg of thiamine hydrochloride (manufactured by Wako Pure Chemical Industries, Ltd.), 20 g of sucrose (manufactured by Wako Pure Chemical Industries, Ltd.), and 1 g of MES (manufactured by DOJINDO LABORATORIES) per 1 L of water and having pH adjusted to 5.8), thereby preparing a medium containing the compound of the present invention at a concentration of 0.1 ppm.
as §2, with “concentration of 0.1 ppm was” for “concentration of 1 ppm was”, “seeds are cultivated for 7” for “seeds are cultured for 7”, “the above medium a test” for “the above medium, a test”
as §3
The nursery plants of the Nicotiana benthamiana having undergone the low-temperature stress treatment were cultivated for 3 days at 22° C., an illuminance of 4,000 lux, and a day length of 16 hours. Thereafter, the area of green leaf was quantified by Scanalyzer HTS (manufactured by LemnaTec GmbH). Moreover, the value of the control plot not treated with the compound that had not yet been subjected to the low-temperature stress treatment was measured in the same manner. A value of a relative leaf area was calculated based on the following equation (1), and if the value of a relative leaf area was 5 or greater, the compound was evaluated to have a mitigating effect. As a result of the evaluation, it was confirmed that when the plant was treated with one of the compounds 3, 7, 14, 16, 36, 39, 43, 45, 50, 52, 53, 54, 56, 57, 62, 63, 64, 65, 68, 69, 70, 71, 73, 74, 76, 77, 79, 80, 81, 84, 85, 86 and 87 of the present invention at 0.1 ppm, the value of a relative leaf area was 5 or greater, compared to the area of green leaf of the control plot not treated with compound. Accordingly, it was confirmed that the treatment using the compound of the present invention brings about a growth promotion effect.
as §4, with “treatment−green” for “treatment−a green”

[4] = test system: Rice (variety: Nipponbare); assay: Test Example 3: promotion of root growth by hydroponics of rice, 0.1 ppm; conditions: Oryza sativa, hydroponic solution containing the test compound at 0.1 ppm, average of 4 or 5 individuals, read-out: Relative value of length of seminal root (%-untreated control plot)
Description: as §5, §6
A DMSO solution, which contained one of the compounds 2, 6, 7, 16, 20, 33, 34, 36, 37, 38, 40, 41, 43, 44, 45, 46, 47, 48, 50, 51, 52, 53, 54, 55, 56, 61, 64, 67, 68, 71, 72, 73, 74, 75, 76, 79, 80, 81 and 83 of the present invention at a concentration of 1,000 ppm, was added to Hoagland hydroponic solution (Hoagland and Arnon, California Agricultural Experiment Station 1950 Circular 347 pp. 34) of ¼-fold concentration at a volume ratio of 1/10,000. In this manner, hydroponic solutions containing one of the compounds 2, 6, 7, 16, 20, 33, 34, 36, 37, 38, 40, 41, 43, 44, 45, 46, 47, 48, 50, 51, 52, 53, 54, 55, 56, 61, 64, 67, 68, 71, 72, 73, 74, 75, 76, 79, 80, 81 and 83 of the present invention at 0.1 ppm were prepared respectively. As an untreated control plot, a hydroponic solution obtained by adding DMSO to Hoagland hydroponic solution of ¼-fold concentration at a volume ratio of 1/10,000 was used.
as §7, with “at 0.1” for “at 10”
as §8, with “0.1” for “10”
as §9

Structure (SMILES) | relative leaf area (% of untreated control) at 1 ppm [1] | change in vivo at 10 ppm [2] | relative leaf area (% of untreated control) at 0.1 ppm [3] | change in vivo at 0.1 ppm [4]
COC(=O)c1oc2ccc(C(F)(F)F)cc2c1NC(=O)c1ccccc1 [Compound 66] | ≥ 5% | – | – | –
COC(=O)c1oc2ccccc2c1NC(=O)c1ccccc1 [Compound 59] | ≥ 5% | – | – | –
COC(=O)c1oc2ccccc2c1N [Compound 57] | – | > 5% | ≥ 5% | –
COC(=O)c1oc2ccccc2c1NC=O [Compound 81] | – | > 5% | ≥ 5% | > 5%
